This passage reports relative viability results from the supplement of paper PMC10307832.

Holding throughout (assay): relative viability (nuclei count vs DMSO), 5 days (fraction); higher = more cells survive
Compound in test [1]: CC(O)(CS(=O)(=O)c1ccc(F)cc1)C(=O)Nc1ccc(C#N)c(C(F)(F)F)c1 [Bicalutamide] + C[C@]1(O)C[C@@H](c2nc(-c3ccc4ccc(-c5ccccc5)nc4c3)c3c(N)nccn32)C1 [Linsitinib] (partner 1 µM)
The essentials:
(§1)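 Dosing by pin tool came one day after lung cancer cell lines were seeded in 1536-well plates, using either one drug or a fixed anchor-drug dose plus five library-drug doses (not always all listed) in √10 steps. After 5 days, nuclei were counted on 4× images. Relative viability is treated-well nuclei count divided by vehicle-well nuclei count, and values are medians of duplicate plates.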

Compound in test [2]: CC(O)(CS(=O)(=O)c1ccc(F)cc1)C(=O)Nc1ccc(C#N)c(C(F)(F)F)c1 [Bicalutamide] + Nc1ncn([C@H]2C[C@H](O)[C@@H](CO)O2)c(=O)n1 [Decitabine] (partner 2 µM)
The essentials:
as §1

Compound in test [3]: CC(O)(CS(=O)(=O)c1ccc(F)cc1)C(=O)Nc1ccc(C#N)c(C(F)(F)F)c1 [Bicalutamide] + CC(=O)Nc1cccc(-n2c(=O)n(C3CC3)c(=O)c3c(Nc4ccc(I)cc4F)n(C)c(=O)c(C)c32)c1 [Trametinib] (partner 0.02 µM)
The essentials:
as §1

Compound in test [4]: C(C(=O)C(=O)O)Br [Bromopyruvate] + CCNC(=O)c1noc(-c2cc(C(C)C)c(O)cc2O)c1-c1ccc(CN2CCOCC2)cc1 [Luminespib] (partner 0.01 µM)
The essentials:
as §1

NCI-H1944: the relative viability in test [1] (first compound 0.08 µM) came out at 1.07; in test [1] (first compound 0.253 µM), 1.15; in test [1] (first compound 0.8 µM) it was 1.27; in test [1] (first compound 2.53 µM), 1.14; in test [2] (first compound 0.08 µM), 0.441; in test [2] (first compound 0.253 µM) it was 0.433. Moreover, the relative viability in test [2] (first compound 0.8 µM) is 0.428; in test [2] (first compound 2.53 µM), 0.462; in test [3] (first compound 0.08 µM) it was 0.408; in test [3] (first compound 0.253 µM), 0.393; in test [3] (first compound 0.8 µM) it was 0.421; in test [3] (first compound 2.53 µM), 0.397. Further, the relative viability in test [4] (first compound 1 µM) is 0.716; in test [4] (first compound 3.162 µM), 0.785; in test [4] (first compound 10 µM), 0.967; in test [4] (first compound 31.62 µM) it was 0.7; in test [4] (first compound 100 µM) it was 0.734.
With NCI-H1975, the relative viability turned out to be 0.947 in test [1] (first compound 0.08 µM); 0.917 in test [1] (first compound 0.253 µM); 1.1 in test [1] (first compound 0.8 µM); 0.656 in test [1] (first compound 2.53 µM); 0.384 in test [2] (first compound 0.08 µM); 0.36 in test [2] (first compound 0.253 µM). For the same cell line, the relative viability in test [2] (first compound 0.8 µM) was 0.436; in test [2] (first compound 2.53 µM), 0.408; in test [3] (first compound 0.08 µM) it was 0.323; in test [3] (first compound 0.253 µM), 0.412; in test [3] (first compound 0.8 µM) it was 0.386; in test [3] (first compound 2.53 µM), 0.339. Besides, the relative viability in test [4] (first compound 1 µM) is 0.227; in test [4] (first compound 3.162 µM), 0.286; in test [4] (first compound 10 µM), 0.084; in test [4] (first compound 31.62 µM), 0.255; in test [4] (first compound 100 µM), 0.253.
Turning to NCI-H1993, the relative viability was determined as 0.77 in test [1] (first compound 0.253 µM); 0.707 in test [1] (first compound 0.8 µM); 0.738 in test [1] (first compound 2.53 µM); 0.678 in test [2] (first compound 0.08 µM); 0.514 in test [2] (first compound 0.253 µM); 0.647 in test [2] (first compound 0.8 µM). In addition, the relative viability in test [2] (first compound 2.53 µM) worked out at 0.627; in test [3] (first compound 0.08 µM), 0.492; in test [3] (first compound 0.253 µM), 0.519; in test [3] (first compound 0.8 µM), 0.536; in test [3] (first compound 2.53 µM), 0.56; in test [4] (first compound 1 µM) it was 0.483. In addition, the relative viability worked out at 0.997 in test [4] (first compound 3.162 µM), 1.26 in test [4] (first compound 10 µM), 0.862 in test [4] (first compound 31.62 µM) and 0.833 in test [4] (first compound 100 µM).
For NCI-H2009, the relative viability is 1.19 in test [1] (first compound 0.08 µM); 1.12 in test [1] (first compound 0.253 µM); 1.16 in test [1] (first compound 0.8 µM); 1.16 in test [1] (first compound 2.53 µM); 0.356 in test [2] (first compound 0.08 µM); 0.37 in test [2] (first compound 0.253 µM). The relative viability is 0.405 in test [2] (first compound 0.8 µM); 0.38 in test [2] (first compound 2.53 µM); 0.296 in test [3] (first compound 0.08 µM); 0.225 in test [3] (first compound 0.253 µM); 0.296 in test [3] (first compound 0.8 µM); 0.248 in test [3] (first compound 2.53 µM). Further, the relative viability worked out at 1 in test [4] (first compound 1 µM); 1.09 in test [4] (first compound 3.162 µM); 0.953 in test [4] (first compound 10 µM); 1.01 in test [4] (first compound 31.62 µM); 0.708 in test [4] (first compound 100 µM).
As to NCI-H2023, the relative viability stood at 0.721 in test [1] (first compound 0.08 µM); 0.723 in test [1] (first compound 0.253 µM); 0.597 in test [1] (first compound 0.8 µM); 0.715 in test [1] (first compound 2.53 µM); 0.267 in test [2] (first compound 0.08 µM); 0.227 in test [2] (first compound 0.253 µM). Moreover, the relative viability in test [2] (first compound 0.8 µM) came to 0.248; in test [2] (first compound 2.53 µM) it was 0.233; in test [3] (first compound 0.08 µM), 0.547; in test [3] (first compound 0.253 µM), 0.52; in test [3] (first compound 0.8 µM) it was 0.556; in test [3] (first compound 2.53 µM), 0.382. Also, the relative viability in test [4] (first compound 1 µM) worked out at 0.77; in test [4] (first compound 3.162 µM) it was 0.883; in test [4] (first compound 10 µM) it was 0.789; in test [4] (first compound 31.62 µM), 0.65; in test [4] (first compound 100 µM), 0.901.
